Measurements published in ChEMBL document CHEMBL4507268 (2021).

Experiments:
Conditions in all cases: Compound concentration 1.0 uM
[1] = biological target: T1, Serine/threonine-protein kinase 17B (Homo sapiens) (UniProt O94768)
T1 sequence (whole entry): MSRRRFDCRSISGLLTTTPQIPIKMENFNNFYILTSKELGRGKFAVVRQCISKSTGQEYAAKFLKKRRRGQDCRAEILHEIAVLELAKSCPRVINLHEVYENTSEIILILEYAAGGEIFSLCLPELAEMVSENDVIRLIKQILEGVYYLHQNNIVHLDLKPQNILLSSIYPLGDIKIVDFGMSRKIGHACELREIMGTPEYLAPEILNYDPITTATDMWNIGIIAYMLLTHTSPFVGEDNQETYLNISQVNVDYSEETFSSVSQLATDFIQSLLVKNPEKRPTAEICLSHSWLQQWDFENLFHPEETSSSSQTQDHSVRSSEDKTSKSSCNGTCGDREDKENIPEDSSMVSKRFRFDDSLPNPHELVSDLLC

[2] = biological target: T2, Ephrin type-B receptor 1 (Homo sapiens) (UniProt P54762)
T2 sequence (whole entry): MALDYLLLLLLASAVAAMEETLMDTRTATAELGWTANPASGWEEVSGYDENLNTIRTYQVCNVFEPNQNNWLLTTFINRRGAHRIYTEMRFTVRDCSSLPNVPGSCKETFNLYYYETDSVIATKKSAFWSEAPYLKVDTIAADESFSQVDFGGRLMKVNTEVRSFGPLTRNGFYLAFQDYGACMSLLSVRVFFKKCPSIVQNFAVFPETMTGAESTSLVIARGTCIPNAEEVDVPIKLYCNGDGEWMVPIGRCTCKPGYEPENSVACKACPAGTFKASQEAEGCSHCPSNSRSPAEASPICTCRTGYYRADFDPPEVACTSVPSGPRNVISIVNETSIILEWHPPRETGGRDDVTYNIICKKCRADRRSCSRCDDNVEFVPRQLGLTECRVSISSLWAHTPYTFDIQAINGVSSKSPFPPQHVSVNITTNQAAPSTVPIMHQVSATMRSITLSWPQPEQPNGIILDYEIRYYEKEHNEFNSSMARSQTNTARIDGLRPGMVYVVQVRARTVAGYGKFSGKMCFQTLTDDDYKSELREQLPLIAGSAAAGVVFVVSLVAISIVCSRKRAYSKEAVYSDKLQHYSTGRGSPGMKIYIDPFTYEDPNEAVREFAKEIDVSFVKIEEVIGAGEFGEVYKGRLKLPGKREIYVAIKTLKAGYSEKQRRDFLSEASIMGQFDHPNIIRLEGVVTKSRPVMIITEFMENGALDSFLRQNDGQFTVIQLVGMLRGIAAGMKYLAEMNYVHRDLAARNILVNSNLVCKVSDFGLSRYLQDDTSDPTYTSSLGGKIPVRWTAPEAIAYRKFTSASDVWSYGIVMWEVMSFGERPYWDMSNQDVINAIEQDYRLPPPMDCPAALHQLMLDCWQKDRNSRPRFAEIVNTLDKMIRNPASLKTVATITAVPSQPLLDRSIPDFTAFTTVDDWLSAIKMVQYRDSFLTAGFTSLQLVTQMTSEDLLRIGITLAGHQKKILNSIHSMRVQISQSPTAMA

[3] = biological target: Vascular endothelial growth factor receptor 1 (Homo sapiens) (UniProt P17948)
[4] = biological target: LIM domain kinase 2 (Homo sapiens) (UniProt P53671)
[5] = biological target: T3, MAP/microtubule affinity-regulating kinase 4 (Homo sapiens) (UniProt Q96L34)
T3 sequence (whole entry): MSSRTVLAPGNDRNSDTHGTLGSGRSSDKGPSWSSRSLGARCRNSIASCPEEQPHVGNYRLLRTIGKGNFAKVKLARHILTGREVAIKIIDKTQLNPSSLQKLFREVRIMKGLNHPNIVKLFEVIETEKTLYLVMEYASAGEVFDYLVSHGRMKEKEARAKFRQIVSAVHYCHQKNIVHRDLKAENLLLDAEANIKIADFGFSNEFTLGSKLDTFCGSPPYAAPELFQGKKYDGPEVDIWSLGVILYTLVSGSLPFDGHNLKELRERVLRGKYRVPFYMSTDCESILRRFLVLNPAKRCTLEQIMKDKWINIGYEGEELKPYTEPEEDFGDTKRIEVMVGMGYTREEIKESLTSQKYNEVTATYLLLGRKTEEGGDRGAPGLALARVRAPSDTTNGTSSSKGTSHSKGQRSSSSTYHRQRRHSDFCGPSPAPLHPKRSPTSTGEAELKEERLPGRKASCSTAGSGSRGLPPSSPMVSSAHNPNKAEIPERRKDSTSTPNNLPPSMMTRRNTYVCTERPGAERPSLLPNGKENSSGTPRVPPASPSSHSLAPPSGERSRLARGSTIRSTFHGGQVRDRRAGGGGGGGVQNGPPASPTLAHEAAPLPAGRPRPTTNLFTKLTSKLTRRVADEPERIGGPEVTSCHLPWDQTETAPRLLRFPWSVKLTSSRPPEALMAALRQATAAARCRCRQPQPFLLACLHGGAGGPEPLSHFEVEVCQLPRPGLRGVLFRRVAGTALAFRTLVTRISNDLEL

[6] = biological target: Mitogen-activated protein kinase kinase kinase 9 (Homo sapiens) (UniProt P80192)
[7] = biological target: Serine/threonine-protein kinase 38-like (Homo sapiens) (UniProt Q9Y2H1)
[8] = biological target: Serine/threonine-protein kinase PAK 1 (Homo sapiens) (UniProt Q13153)
[9] = biological target: Angiopoietin-1 receptor (Homo sapiens) (UniProt Q02763)
[10] = biological target: Non-receptor tyrosine-protein kinase TYK2 (Homo sapiens) (UniProt P29597)
[11] = biological target: Death-associated protein kinase 3 (Homo sapiens) (UniProt O43293)

Measured: % residual kinase activity

Vascular endothelial growth factor receptor 1 (Homo sapiens), sequence (P17948 whole entry, the tested form may be a part): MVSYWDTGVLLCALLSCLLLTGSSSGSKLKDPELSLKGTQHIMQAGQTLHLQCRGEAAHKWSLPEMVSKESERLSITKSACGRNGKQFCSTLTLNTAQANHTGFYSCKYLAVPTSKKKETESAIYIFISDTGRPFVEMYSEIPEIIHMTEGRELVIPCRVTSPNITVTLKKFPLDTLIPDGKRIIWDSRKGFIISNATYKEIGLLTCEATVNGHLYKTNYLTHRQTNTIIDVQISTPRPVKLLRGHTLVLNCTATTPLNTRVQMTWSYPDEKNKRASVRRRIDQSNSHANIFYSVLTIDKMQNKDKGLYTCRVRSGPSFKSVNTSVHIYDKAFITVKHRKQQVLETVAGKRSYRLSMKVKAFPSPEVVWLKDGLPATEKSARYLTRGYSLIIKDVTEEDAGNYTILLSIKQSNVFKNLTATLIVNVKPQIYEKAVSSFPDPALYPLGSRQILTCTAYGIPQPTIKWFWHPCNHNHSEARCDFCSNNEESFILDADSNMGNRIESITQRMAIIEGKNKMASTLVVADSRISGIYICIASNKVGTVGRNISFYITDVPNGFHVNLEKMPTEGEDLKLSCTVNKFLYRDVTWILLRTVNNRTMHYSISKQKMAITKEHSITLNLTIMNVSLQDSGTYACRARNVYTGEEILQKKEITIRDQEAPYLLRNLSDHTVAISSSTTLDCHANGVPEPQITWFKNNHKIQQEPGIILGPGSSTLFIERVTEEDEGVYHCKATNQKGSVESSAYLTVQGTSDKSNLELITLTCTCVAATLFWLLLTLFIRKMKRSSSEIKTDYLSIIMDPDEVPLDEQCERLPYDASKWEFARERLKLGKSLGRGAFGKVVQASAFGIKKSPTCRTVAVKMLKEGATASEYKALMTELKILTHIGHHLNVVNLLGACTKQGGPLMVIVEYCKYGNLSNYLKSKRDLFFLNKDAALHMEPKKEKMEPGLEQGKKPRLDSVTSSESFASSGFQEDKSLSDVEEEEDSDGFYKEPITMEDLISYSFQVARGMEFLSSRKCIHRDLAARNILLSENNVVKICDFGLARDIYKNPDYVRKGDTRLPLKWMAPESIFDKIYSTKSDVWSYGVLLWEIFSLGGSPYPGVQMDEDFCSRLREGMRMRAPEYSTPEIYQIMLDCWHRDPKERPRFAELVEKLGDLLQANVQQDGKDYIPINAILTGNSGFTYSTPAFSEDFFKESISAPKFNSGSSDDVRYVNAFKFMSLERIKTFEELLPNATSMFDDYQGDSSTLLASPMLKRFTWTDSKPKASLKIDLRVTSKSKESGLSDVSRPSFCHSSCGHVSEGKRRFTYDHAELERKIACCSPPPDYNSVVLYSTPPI
Death-associated protein kinase 3 (Homo sapiens), sequence (O43293 whole entry, looked up): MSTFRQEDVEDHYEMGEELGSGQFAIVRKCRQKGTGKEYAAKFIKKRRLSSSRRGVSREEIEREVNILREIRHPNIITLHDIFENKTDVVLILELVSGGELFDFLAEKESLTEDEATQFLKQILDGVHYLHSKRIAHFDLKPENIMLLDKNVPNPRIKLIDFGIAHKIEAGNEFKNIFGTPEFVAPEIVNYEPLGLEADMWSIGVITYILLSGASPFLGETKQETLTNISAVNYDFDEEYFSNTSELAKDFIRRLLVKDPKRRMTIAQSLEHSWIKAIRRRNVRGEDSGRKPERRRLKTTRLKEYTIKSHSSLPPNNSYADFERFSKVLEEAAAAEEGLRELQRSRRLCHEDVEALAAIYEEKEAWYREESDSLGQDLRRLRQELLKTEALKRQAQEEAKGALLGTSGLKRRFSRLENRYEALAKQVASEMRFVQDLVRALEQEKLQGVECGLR
Serine/threonine-protein kinase 38-like (Homo sapiens), sequence (Q9Y2H1 2-464 limits assumed): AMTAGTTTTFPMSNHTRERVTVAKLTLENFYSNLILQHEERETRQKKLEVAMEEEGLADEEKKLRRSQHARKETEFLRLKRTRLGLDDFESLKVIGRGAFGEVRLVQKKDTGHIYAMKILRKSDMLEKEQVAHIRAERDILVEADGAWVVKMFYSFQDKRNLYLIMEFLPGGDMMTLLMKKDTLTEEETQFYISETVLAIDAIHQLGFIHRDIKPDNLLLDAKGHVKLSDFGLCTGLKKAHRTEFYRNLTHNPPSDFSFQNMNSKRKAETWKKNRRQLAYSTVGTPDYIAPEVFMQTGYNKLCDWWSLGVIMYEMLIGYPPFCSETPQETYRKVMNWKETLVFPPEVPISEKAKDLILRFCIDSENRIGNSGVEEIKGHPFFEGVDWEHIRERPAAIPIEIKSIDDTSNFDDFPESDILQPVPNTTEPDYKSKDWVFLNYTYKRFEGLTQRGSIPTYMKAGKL
Non-receptor tyrosine-protein kinase TYK2 (Homo sapiens), sequence (P29597 whole entry): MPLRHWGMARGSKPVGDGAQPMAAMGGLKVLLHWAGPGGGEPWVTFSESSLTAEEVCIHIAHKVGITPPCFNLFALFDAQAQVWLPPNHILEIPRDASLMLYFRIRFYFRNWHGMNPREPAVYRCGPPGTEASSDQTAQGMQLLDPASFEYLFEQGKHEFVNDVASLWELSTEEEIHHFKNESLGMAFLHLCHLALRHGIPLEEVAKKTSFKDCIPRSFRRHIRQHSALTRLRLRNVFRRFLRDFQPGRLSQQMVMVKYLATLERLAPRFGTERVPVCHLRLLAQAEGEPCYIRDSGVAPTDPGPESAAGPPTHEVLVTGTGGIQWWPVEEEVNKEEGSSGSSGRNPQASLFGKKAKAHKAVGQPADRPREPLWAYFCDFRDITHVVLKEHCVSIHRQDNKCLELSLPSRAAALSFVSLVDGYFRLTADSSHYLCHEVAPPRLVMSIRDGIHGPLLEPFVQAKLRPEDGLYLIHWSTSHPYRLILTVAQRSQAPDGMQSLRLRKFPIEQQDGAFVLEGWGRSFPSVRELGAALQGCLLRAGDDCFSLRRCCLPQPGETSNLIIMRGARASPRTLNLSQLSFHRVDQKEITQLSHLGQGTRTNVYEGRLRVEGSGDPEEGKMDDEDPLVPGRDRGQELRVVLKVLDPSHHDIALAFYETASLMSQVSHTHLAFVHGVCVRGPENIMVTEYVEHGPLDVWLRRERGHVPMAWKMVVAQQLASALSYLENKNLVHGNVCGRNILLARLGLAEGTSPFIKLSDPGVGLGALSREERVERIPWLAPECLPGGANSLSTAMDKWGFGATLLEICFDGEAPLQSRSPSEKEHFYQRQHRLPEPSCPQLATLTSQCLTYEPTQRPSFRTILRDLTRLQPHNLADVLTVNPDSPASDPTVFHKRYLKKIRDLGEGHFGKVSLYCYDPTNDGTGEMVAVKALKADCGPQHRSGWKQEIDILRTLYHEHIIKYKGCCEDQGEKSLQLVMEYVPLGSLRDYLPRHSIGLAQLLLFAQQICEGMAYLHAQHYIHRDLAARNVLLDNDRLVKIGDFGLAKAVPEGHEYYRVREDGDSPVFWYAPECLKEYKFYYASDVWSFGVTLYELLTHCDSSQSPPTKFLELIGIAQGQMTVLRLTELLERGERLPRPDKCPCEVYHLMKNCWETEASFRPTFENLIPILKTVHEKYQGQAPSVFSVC
LIM domain kinase 2 (Homo sapiens), sequence (P53671 whole entry, looked up, the tested form may be a part): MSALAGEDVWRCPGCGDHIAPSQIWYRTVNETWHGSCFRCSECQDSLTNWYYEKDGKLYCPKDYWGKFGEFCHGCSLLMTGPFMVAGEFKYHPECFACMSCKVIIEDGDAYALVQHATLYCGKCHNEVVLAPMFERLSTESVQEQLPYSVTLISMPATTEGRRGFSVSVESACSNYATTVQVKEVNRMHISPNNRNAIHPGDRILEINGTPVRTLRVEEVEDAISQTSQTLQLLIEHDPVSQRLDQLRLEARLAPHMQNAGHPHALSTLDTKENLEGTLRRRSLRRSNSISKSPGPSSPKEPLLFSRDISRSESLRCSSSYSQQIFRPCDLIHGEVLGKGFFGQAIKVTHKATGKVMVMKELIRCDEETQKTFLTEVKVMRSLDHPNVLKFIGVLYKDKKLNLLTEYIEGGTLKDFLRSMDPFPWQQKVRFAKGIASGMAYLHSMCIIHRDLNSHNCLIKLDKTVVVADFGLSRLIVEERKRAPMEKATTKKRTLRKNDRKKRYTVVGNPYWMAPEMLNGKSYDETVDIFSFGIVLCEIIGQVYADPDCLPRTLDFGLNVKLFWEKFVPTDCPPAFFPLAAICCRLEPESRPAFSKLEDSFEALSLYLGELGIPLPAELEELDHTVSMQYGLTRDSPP
Serine/threonine-protein kinase PAK 1 (Homo sapiens), sequence (Q13153 whole entry): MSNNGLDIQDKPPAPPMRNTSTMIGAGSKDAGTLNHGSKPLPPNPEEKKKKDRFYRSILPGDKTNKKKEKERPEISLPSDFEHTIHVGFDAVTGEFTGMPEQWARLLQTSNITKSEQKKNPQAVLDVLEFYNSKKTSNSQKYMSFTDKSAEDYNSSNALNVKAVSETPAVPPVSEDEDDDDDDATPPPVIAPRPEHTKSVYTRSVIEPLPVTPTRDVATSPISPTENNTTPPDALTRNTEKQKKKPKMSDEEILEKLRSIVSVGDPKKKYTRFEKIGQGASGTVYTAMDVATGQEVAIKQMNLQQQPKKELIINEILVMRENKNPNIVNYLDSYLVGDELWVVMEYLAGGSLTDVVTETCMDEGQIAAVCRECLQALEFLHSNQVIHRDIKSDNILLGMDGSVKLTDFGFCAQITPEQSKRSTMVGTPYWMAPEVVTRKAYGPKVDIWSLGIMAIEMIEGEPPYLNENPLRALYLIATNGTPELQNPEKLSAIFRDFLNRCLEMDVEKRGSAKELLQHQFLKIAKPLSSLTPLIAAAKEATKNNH

CN1CCN(c2cnc3c(C4CCN(C(=O)c5ccc(OC(F)(F)F)cc5N)CC4)ncnc3c2)CC1 [BAY-885]
inactive: [1] 117% | [2] 105% | [3] 108% | [4] 104% | [5] 100% | [6] 108% | [7] 100% | [8] 95% | [9] 84% | [10] 110% | [11] 111%
